Here are results for 21 molecules from patent US9650339B2, “Inhibitors of histone demethylases” (Gilead Sciences, Inc., priority 2013, dated 2017).

Structures are written as SMILES. pEC50, pIC50: −log10 of the molar value. Bounds are passed on as bounds.

The target in one experiment is T1, KDM2B (FBXL10) (Homo sapiens, UniProt Q8NHM5).
T1 sequence (Q8NHM5 1-650): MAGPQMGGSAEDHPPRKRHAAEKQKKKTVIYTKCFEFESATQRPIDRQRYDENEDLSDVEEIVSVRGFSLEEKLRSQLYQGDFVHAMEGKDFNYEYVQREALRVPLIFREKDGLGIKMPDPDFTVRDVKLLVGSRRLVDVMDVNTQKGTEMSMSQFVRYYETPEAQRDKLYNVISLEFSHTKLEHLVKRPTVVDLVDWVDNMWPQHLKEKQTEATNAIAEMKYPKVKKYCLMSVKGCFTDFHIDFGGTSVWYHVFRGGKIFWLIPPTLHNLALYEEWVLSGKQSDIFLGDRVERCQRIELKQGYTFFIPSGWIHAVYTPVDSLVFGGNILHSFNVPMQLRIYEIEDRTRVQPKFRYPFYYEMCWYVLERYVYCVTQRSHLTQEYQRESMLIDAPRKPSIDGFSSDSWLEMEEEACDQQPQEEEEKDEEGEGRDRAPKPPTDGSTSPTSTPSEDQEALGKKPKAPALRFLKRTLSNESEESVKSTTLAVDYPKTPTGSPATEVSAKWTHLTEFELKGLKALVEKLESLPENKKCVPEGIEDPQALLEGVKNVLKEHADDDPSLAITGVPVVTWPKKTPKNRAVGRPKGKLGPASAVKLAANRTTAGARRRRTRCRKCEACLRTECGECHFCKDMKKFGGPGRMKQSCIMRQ
Put plainly: Histone lysine demethylase AlphaLISA assay, KDM2B. Format: biochemical. The conditions noted are these: read-out: KDM2B HDME Inhibition IC50. In short, it runs like this:
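AlphaLISA demethylation readout: enzyme preincubated 10 min, then 10 min with compounds in 3% DMSO buffer, before biotinylated methyl-lysine histone peptide substrate with 25 μM L-Asc and 10 μM α-KG, room temperature. Acceptor beads then streptavidin donor beads added, dark incubation, plates read.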
(In general: Alpha assays give light when donor and acceptor beads are brought close together.)

The target in the next experiment is T2, KDM4A (JMJD2A) (Homo sapiens, UniProt O75164).
T2 construct: 1-350; purchased BPS Bioscience, US; host or cells: E. coli
T2 sequence (O75164 1-350): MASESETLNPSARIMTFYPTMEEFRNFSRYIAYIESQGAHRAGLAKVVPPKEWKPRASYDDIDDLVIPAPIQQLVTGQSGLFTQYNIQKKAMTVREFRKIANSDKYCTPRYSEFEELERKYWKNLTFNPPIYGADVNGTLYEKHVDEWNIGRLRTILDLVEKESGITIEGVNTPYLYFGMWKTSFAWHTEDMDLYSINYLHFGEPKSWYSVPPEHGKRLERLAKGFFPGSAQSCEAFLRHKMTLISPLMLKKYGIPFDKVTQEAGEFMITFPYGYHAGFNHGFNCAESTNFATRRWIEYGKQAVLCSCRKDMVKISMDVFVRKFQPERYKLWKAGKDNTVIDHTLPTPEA
As to the kind of experiment: Histone lysine demethylase AlphaLISA assay, KDM4A. Format: biochemical. The note with it: read-out: KDM4A HDME Inhibition IC50. How it is done:
Assays are performed analogously to the protocol described by PerkinElmer (Roy et al. PerkinElmer Technical Note: AlphaLISA #12, April 2011)
Enzymes are dissolved in enzyme buffer and incubated for 10 min before being added to 3% DMSO solutions of compounds in enzyme buffer. Incubated for another 10 minutes, before substrate solution is added and the reaction mixture is incubated at room temperature. 10 μL acceptor beads, suspended in Epigenetic Buffer (Perkin Elmer AL008) from stock, are added and the suspension is incubated in the dark at room temperature, before a suspension of streptavidin donor beads (Perkin Elmer 6760002) in Epigenetic Buffer is added. After incubation at room temperature in the dark the plates are read.
BK9M3: Biotin-ARTKQTAR(KMe3)STGGKAPRKQ-NH2 (Caslo, Denmark) […]
Substrate Solution: Substrate, 25 μM L-Asc, and 10 μM α-KG in Buffer A.

The test system of a further experiment is H3K4me3 mark. As to the kind of experiment: Histone lysine demethylase immunofluorescence assay, non-transfected U2OS cells. Format: cell-based. The note with it: Homo sapiens, staining of the H3K4me3 mark, 20 hours incubation with compound. In short, it runs like this:
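Non-transfected U2OS cells incubated with compounds 20 h in DMEM/5% FBS. Fixed cells immunostained for H3K4me3 with Hoechst counterstain and imaged by high-throughput microscopy. IC50 based on average cellular H3K4me3 staining.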

The test system of the next experiment is MCF7 cells. Put plainly: Cell proliferation assay MCF7. The format is cell-based. The conditions noted are these: MCF7 human breast cancer cells; 120 hours; ATPlite 1 Step. In short, it runs like this: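 After 120 h of compound exposure (duplicates, DMSO at most 0.5%) in DMEM GlutaMAX with 10% FBS, ATPlite 1 Step luminescence measured cellular ATP. Compound was added 24 h after seeding, at a density chosen for ~90% confluence at the end.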
(ATP-based viability assays read luminescence as a measure of living cells.)

For `CCN(CC)CCCCNCc1cc(CNC(=O)C(F)(F)F)ccn1` [Compound 1, N-{[2-({[4-(diethylamino)butyl]-amino}methyl)pyridin-4-yl]methyl}-2,2,2-trifluoroacetamide], the pIC50 is below 5.60 on KDM2B (FBXL10), 5.60 to 6.60 on KDM4A (JMJD2A) and above 6.60 in the experiment on H3K4me3 mark. In the experiment on MCF7 cells, this molecule showed a pEC50 above 6.60.

With `CN(C)CCCNCc1cc(CN)ccn1` [Compound 3, [2-({[3-(dimethylamino)propyl]-amino}methyl)pyridin-4-yl]methanamine], the pIC50 is below 5.60 at KDM2B (FBXL10), above 6.60 at KDM4A (JMJD2A) and above 6.60 with H3K4me3 mark. In the experiment on MCF7 cells, the pEC50 was above 6.60.

`CCN(CCN(C)C)C(=O)CNCc1cc(CN)ccn1` [Compound 4, 2-({[4-(aminomethyl)pyridin-2-yl]methyl}amino)-N-[2-(dimethylamino)ethyl]-N-ethylacetamide]: the pIC50 on KDM2B (FBXL10) was below 5.60; at KDM4A (JMJD2A), 5.60 to 6.60; in the experiment with H3K4me3 mark, above 6.60. This molecule also showed a pEC50 in the experiment with MCF7 cells above 6.60.

Regarding `CCN(CC)CCCCN(Cc1cc(CNC(=O)C(F)(F)F)ccn1)C(=O)C(F)(F)F` [Compound 6, N-[4-(diethylamino)butyl]-- 2,2,2-trifluoro-N-({4-[(trifluoroacetamido)-methyl]pyridin-2-yl}methyl)acetamide], the pIC50 on KDM2B (FBXL10) was below 5.60; on KDM4A (JMJD2A) it was 5.60 to 6.60; in the experiment on H3K4me3 mark it was above 6.60. Also, the pEC50 in the experiment on MCF7 cells is above 6.60.

Consider `NCc1ccnc(CNCCCCN2CCC2)c1` [Compound 7, [2-({[4-(azetidin-1-yl)butyl]amino}methyl)-pyridin-4-yl]-methanamine], for which the pIC50 at KDM2B (FBXL10) was below 5.60; on KDM4A (JMJD2A), below 5.60; in the experiment with H3K4me3 mark, above 6.60. The same molecule had a pEC50 in the experiment with MCF7 cells of 5.60 to 6.60.

For `COc1ccccc1CN1CCC(NC(=O)CNCc2cc(CN)ccn2)CC1` [Compound 9, 2-({[4-(aminomethyl)pyridin-2-yl]methyl}amino)-N-{1-[(2-methoxyphenyl)methyl]-piperidin-4-yl}acetamide], the pIC50 on KDM2B (FBXL10) was below 5.60; at KDM4A (JMJD2A), below 5.60; in the experiment on H3K4me3 mark, 5.60 to 6.60. In the experiment on MCF7 cells, this molecule had a negative-log EC50 (pEC50) below 5.60.

Take `CN(C)C(=O)CNCc1cc(CNCC#N)ccn1` [Compound 13, 2-{[(4-{[(cyanomethyl)amino]-methyl}pyridin-2-yl)methyl]amino}-N,N-dimethylacetamide]: the pIC50 at KDM2B (FBXL10) is below 5.60; at KDM4A (JMJD2A), below 5.60; in the experiment on H3K4me3 mark it was 5.60 to 6.60.

Take `CC(C#N)NCc1ccnc(CNCCCN(C)C)c1` (stereo not shown) [Compound 22, 2-({[2-({[3-(dimethylamino)propyl]-amino}methyl)pyridin-4-yl]methyl}amino)-propanenitrile]: the pIC50 at KDM2B (FBXL10) is below 5.60; at KDM4A (JMJD2A), below 5.60; in the experiment on H3K4me3 mark, above 6.60. For the same molecule, the pEC50 with MCF7 cells is above 6.60.

In the case of `N#CCNCc1ccnc(CNCCCCN(Cc2ccccc2)C2CC2)c1` [Compound 23, 2-[({2-[({4-[benzyl(cyclopropyl)-amino]butyl}amino)-methyl]pyridin-4-yl}methyl)amino]-acetonitrile], the values for the pIC50 at KDM2B (FBXL10), on KDM4A (JMJD2A) and in the experiment with H3K4me3 mark were below 5.60, below 5.60 and above 6.60, respectively.

For the molecule `CNC(C#N)c1ccnc(CNCCCN(C)C)c1` (stereo not shown) [Compound 24, 2-[2-({[3-(dimethylamino)propyl]-amino}methyl)pyridin-4-yl]-2-(methylamino)-acetonitrile], the figures for the pIC50 at KDM2B (FBXL10), on KDM4A (JMJD2A) and with H3K4me3 mark were below 5.60, 5.60 to 6.60 and above 6.60, respectively.

Regarding `CCN(CCN(C)C)C(=O)CNCc1cc(CNC(=O)C(F)(F)F)ccn1` [Compound 25, N-[(2-{[({[2-(dimethylamino)ethyl]-(ethyl)carbamoyl}-methyl)amino]methyl}-pyrtdin-4-yl)methyl]-2,2,2-trifluoroacetamide], the pIC50 on KDM2B (FBXL10) is below 5.60; at KDM4A (JMJD2A), below 5.60; with H3K4me3 mark, above 6.60. The molecule further had a pEC50 with MCF7 cells above 6.60.

Regarding `CN(C)C(=O)CNCc1cc(/C=N\C2CC2)ccn1` [Compound 33], the pIC50 is 5.60 to 6.60 at KDM2B (FBXL10), above 6.60 at KDM4A (JMJD2A) and 5.60 to 6.60 in the experiment on H3K4me3 mark.

With `CN(C)C(=O)CNCc1cc(/C=N/CCC2CCCCC2)ccn1` [Compound 36, 2-[({4-[[(2-cyclohexylethyl)imino]-methyl]pyridin-2-yl}methyl)amino]-N,N-dimethylacetamide], the pIC50 at KDM2B (FBXL10) is below 5.60; on KDM4A (JMJD2A), 5.60 to 6.60; with H3K4me3 mark, above 6.60. In the experiment on MCF7 cells, this molecule gave a pEC50 of 5.60 to 6.60.

Regarding `CN(C)CCCNCc1cc(/C=N/CCN(C)C)ccn1` [Compound 38, ({4-[{[2-(dimethylamino)ethyl]-imino}methyl]pyridin-2-yl}methyl)[3-(dimethylamino)-propyl]amine], the pIC50 was below 5.60 at KDM2B (FBXL10), below 5.60 on KDM4A (JMJD2A) and above 6.60 with H3K4me3 mark. Besides, the pEC50 with MCF7 cells is above 6.60.

For the molecule `CN1CCCC1CCNCc1cc(/C=N/C2CC2)ccn1` (stereo not drawn) [Compound 40, N-{[2-({[2-(l-methylpyrrolidin-2-yl)ethyl]amino}methyl)-pyridin-4-yl]methylidene}-cyclopropanamine], the pIC50 was below 5.60 on KDM2B (FBXL10), below 5.60 at KDM4A (JMJD2A) and above 6.60 in the experiment on H3K4me3 mark. In the experiment with MCF7 cells, this molecule had a pEC50 of 5.60 to 6.60.

As to `CN(C)C/C=C/CNCc1cc(/C=N/C2CC2)ccn1` [Compound 43, N-{[2-({[(2E)-4-(dimethylamino)but-2-en-1-yl]amino}-methyl)pyridin-4-yl]methylidene}-cyclopropanamine], the values for the pIC50 at KDM2B (FBXL10), on KDM4A (JMJD2A) and in the experiment on H3K4me3 mark were below 5.60, 5.60 to 6.60 and above 6.60, respectively. Moreover, the pEC50 in the experiment with MCF7 cells is above 6.60.

In the case of `C(=N\C1CC1)/c1ccnc(CNCCCCN2CCC2)c1` [Compound 44, N-{[2-({[4-(azetidin-1-yl)butyl]amino}methyl)-pyridin-4-yl]methylidene}-cyclopropanamine], the pIC50 on KDM2B (FBXL10) was below 5.60; at KDM4A (JMJD2A), below 5.60; in the experiment on H3K4me3 mark, above 6.60. For the same molecule, the pEC50 with MCF7 cells was above 6.60.

As to `CCN(CCN(C)C)C(=O)CNCc1cc(C2OCC3(CC3)CN2C(=O)C(F)(F)F)ccn1` (stereo not shown) [Compound 91, N-[2--(dimethylamino)-ethyl]-N-ethyl-2-[({4-[7-(trifluoroacetyl)-5-oxa-7-azaspiro[2.5]-octan-6-yl]pyridin-2-yl}methyl)amino]-acetamide], the pIC50 at KDM2B (FBXL10) was below 5.60; in the experiment on H3K4me3 mark, above 6.60. In the experiment on MCF7 cells, the pEC50 was above 6.60.

For `CN1CCC(CNCc2cc(C=O)ccn2)CC1` [Compound 100, 2-({[(1-methyl-piperidin-4-yl)methyl]amino}-methyl)pyridine-4-carbaldehyde], the pIC50 at KDM2B (FBXL10) is below 5.60; in the experiment with H3K4me3 mark, above 6.60. Besides, the pEC50 in the experiment on MCF7 cells was above 6.60.

As to `O=Cc1ccnc(CNCCCN2CCCC2)c1` [Compound 111, 2-({[3-(pyrrolidin-1-yl)propyl]amino}-methyl)pyridine-4-carbaldehyde], the pIC50 is below 5.60 at KDM2B (FBXL10) and above 6.60 in the experiment with H3K4me3 mark. For the same molecule, the negative-log EC50 (pEC50) with MCF7 cells was above 6.60.

Turning to `CCN(CC(C)(C)N(C)C)C(=O)CNCc1cc(C=O)ccn1` [Compound 118, N-[2-(dimethylamino)-2-methylpropyl]-N-ethyl-2-{[(4-formylpyridin-2-yl)methyl]amino}-acetamide], the pIC50 is below 5.60 at KDM2B (FBXL10) and above 6.60 in the experiment on H3K4me3 mark. Moreover, the pEC50 with MCF7 cells is above 6.60.

As usually defined, the pIC50 is −log10 of the IC50, conventionally taken in molar units. Usually pEC50 stands for the EC50 on a negative log10 scale, so that one unit is a factor of ten. Low values mean a large EC50, high ones a small EC50.
